According to patent US12600696B2 (XENIOPRO GMBH, priority 2017, dated 2026):

Tests used:
Format in all cases: cell-based
[1] = test system: HL-60 cells (human acute myeloid leukemia cells); assay: alamarBlue proliferation assay with HL-60 cells; settings: 120 h, 5 days, relative to DMSO baseline level of 1.0, read-out: AVEw, weighted arithmetic mean of normalized fluorescence intensity values (Activity Range), HL-60 proliferation
Outline: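 HL-60 cells (1000/well, RPMI 1640 + 10% FBS) exposed to compound in 0.1% DMSO for 5 days, then alamarBlue fluorescence read (ex 560/em 590 nm). Signals normalized to six DMSO wells per plate (baseline 1.0); outliers removed by Peirce/Chauvenet; weighted mean with combined SD; inhibitor criterion judged at 20 μM reference concentration.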

[2] = test system: CAL-27 cells (human tongue squamous cell carcinoma cells); assay: alamarBlue proliferation assay with CAL-27 cells; settings: Homo sapiens, 120 h; for activity at 20 µM: 5 days, relative to DMSO baseline level of 1.0, read-out: AVEw, weighted arithmetic mean of normalized fluorescence intensity values (Activity Range), CAL-27 proliferation; for activity at 40 µM: relative to DMSO basis level 1.0, read-out: weighted arithmetic mean (AVEw) of normalized fluorescence intensity, activity range
Outline: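 CAL-27 cells seeded at 2000 per well, exposed to compound in 0.1% DMSO for 5 days, then alamarBlue fluorescence (ex 560/em 590 nm). Values normalized to DMSO wells (1.0) as weighted means with combined standard deviation; growth inhibition judged at 20 μM reference concentration.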

[3] = test system: TT cells (human medullary thyroid carcinoma cells); assay: alamarBlue proliferation assay with TT cells; settings: Homo sapiens, 120 h, 40 μM, relative to DMSO basis level 1.0, read-out: weighted arithmetic mean (AVEw) of normalized fluorescence intensity, activity range
Protocol: (§1) The antiproliferative activities of compounds falling under formula I, formula II, formula III, formula IV and formula V were investigated on cells or cell lines originating from a disorder of the myeloid cell compartment, the neuroendocrine system, the cervix, and the mucosal epithelium, as well as from the skin epithelium. To this end, HL-60 cells, TT cells, HeLa cells, CAL-27 cells and human primary epidermal keratinocytes (HPEK) were seeded into 96-well plates suitable for fluorescence assays (CORNING #3598) at following initial cell numbers: 1000 cells per well for HL-60; 9000 cells per well for TT; 2000 cells per well for HeLa, 2000 cells per well for CAL-27, 2000 cells per well for HPEK. The cells were treated with compounds at indicated final concentrations (diluted from the 1000× stock-solutions in DMSO to a final DMSO concentration of 0.1% v/v) or with the empty carrier DMSO at 0.1% v/v as control for 5 days. At day 5 after starting the treatments the cells were subjected to the alamarBlue® Proliferation Assay (Bio-Rad Serotec GmbH, BUF012B) according to the protocol of the manufacturer. The readout was taken with a multi-well plate-reader in the fluorescence mode with applying a filter for excitation at 560 nm (band width 10 nm) and for emission at 590 nm (band width 10 nm). Resveratrol (RES) treatment was included as control for growth inhibition.
(§2) The assays were performed in duplicate or more replicates of independent single experiments each containing a six-fold replicate for every condition. For every individual plate, the measured fluorescence intensity values of the conditions with compound treatment were normalized against the corresponding equally weighted arithmetic mean of the fluorescence intensity values of the six DMSO treated control wells in order to obtain the relative values to a baseline level of 1.0. The statistical calculations were performed in analogy to the luciferase assay as described above. To this end, two independent outlier analyses were performed according to the methods by Peirce and Chauvenet (Ross, Journal of Engineering Technology 2003, 1-12). Outliers confirmed by at least one of the methods were excluded from the calculations but not more than one value out of six per compound within a single experiment. The weighted arithmetic mean AVEw for each compound was calculated from the normalized values over all independent replicates of the single experiments comprising the six replicates each. The corresponding standard deviation for the weighted arithmetic mean was calculated according to the method described by Bronstein et al. (Bronstein, Semendjajew, Musiol, Mühlig, Taschenbuch der Mathematik, 5th edition 2001 (German), publisher: Verlag Harri Deutsch, Frankfurt am Main and Thun) and was combined with the Gauß′ error propagation associated with the performed calculation for the normalization. The resulting standard deviation is herein referred to as “combined standard deviation”.
TT cells were cultivated according to the protocol of the provider in F-12K medium (Fisherscientific, #11580556, or ATCC, #ATCC-30-2004) containing 10% fetal bovine serum (Fisherscientific, #15517589).
(§3) A compound is considered as a growth inhibitor of TT cells, if—at a reference concentration of 40 μM—the weighted arithmetic mean of the normalized fluorescence intensity values after addition of the corresponding combined standard deviation amounts to 0.9 or lower, in particular to 0.8 or lower, 0.7 or lower, 0.6 or lower, 0.4 or lower, and 0.2 or lower, relative to the overall basis level of 1.0. The overall basis level was calculated as the weighted arithmetic mean of all normalized values from the DMSO control measurements in analogy to the calculations performed for the test-compounds. The corresponding combined standard deviation for the DMSO values amounts to less than 1·10^−2.

[4] = test system: HPEKp cells (human epidermal keratinocyte progenitors, pooled); assay: alamarBlue proliferation assay with HPEKp cells; settings: 120 h, relative to DMSO basis level 1.0, read-out: weighted arithmetic mean (AVEw) of normalized fluorescence intensity, activity range
Protocol: as §1, §2
HPEKp cells were cultivated according to the protocol of the provider in CnT-Prime epithelial culture medium (CELLnTEC, #CnT-PR, a fully defined, low calcium formulation, completely free of animal or human-derived components) without addition of further components.
as §3, with “HPEKp” for “TT”, “10” for “40”

[5] = test system: BHY cells (human oral squamous cell carcinoma cells); assay: alamarBlue proliferation assay with BHY cells; settings: 72 h, 3 days treatment, single assay (preliminary), relative to DMSO basis level 1.0, read-out: equally weighted arithmetic mean (AVE) of six normalized fluorescence intensity values, activity range (RES: AVEw)
Protocol: Compounds were tested on BHY cells using the alamarBlue® proliferation assay in analogy to the above described method with seeding the cells at an initial number of 4000 cells per 96-well and a duration of treatment with compounds for 3 days.
BHY cells were cultivated according to the protocol of the provider (but at 5% instead of 10% CO2) in DMEM medium (Fisherscientific, #11584456) containing 10% fetal bovine serum (Fisherscientific, #15517589).
A compound is considered as a growth inhibitor of BHY cells, if—at a reference concentration of 40 μM—the equally weighted arithmetic mean (AVE) of the six normalized fluorescence intensity values after addition of the corresponding standard deviation amounts to 0.9 or lower, in particular to 0.8 or lower, 0.7 or lower, 0.6 or lower, 0.4 or lower, and 0.2 or lower, relative to the overall basis level of 1.0. The overall basis level was calculated as the weighted arithmetic mean (AVEw) of all normalized values from the DMSO control measurements. The corresponding combined standard deviation for the DMSO values amounts to less than 1·10^−2. The corresponding standard deviations for the tested compounds were calculated including the Gauß′ error propagation associated with the performed calculation for the normalization. The weighted arithmetic mean (AVEw) and the combined standard deviation for RES was calculated in analogy to DMSO. Outlier analyses were performed as described above.

Structure (SMILES)	activity at 20 µM [1] [%]	activity at 20 µM [2] [%]	activity at 40 µM [2] [%]	activity at 40 µM [3] [%]	activity at 10 µM [4] [%]	activity at 40 µM [5] [%]
CN(C)C(=O)c1ccc(Oc2ccc(C3CC4CCC3CC4)cc2)cc1 (stereo not shown) [Compound 237, 4-(4-((1s,4s)-bicyclo[2.2.2]octan-2-yl)phenoxy)-N,N-dimethylbenzamide]	20 to 40	40 to 60	20 to 40	40 to 60	–	–
O=C(NO)c1ccc(Oc2ccc(C3CCCCC3)cc2)c(F)c1 [Compound 540, 4-(4-cyclohexylphenoxy)-3-fluoro-N-hydroxybenzamide]	0 to 20	0 to 20	–	20 to 40	20 to 40	0 to 20
CCC(C)(C)c1ccc(Oc2ncc(C(=O)NO)cc2F)cc1 [Compound 633]	0 to 20	0 to 20	–	–	–	20 to 40
CCOC(=O)c1ccc(Oc2ccc(C3(C(F)(F)F)CC3)cc2Cl)cc1 [Compound 729, Ethyl 4-(2-chloro-4-(1-(trifluoromethyl)cyclopropyl)phenoxy)-benzoate]	40 to 60	–	20 to 40	20 to 40	–	–
O=C(NO)c1ccc(Oc2ccc(C3(C(F)(F)F)CC3)cc2)c(F)c1 [Compound 768, 3-fluoro-N-hydroxy-4-(4-(1-(trifluoromethyl)cyclopropyl)phenoxy)benzamide]	0 to 20	20 to 40	20 to 40	0 to 20	–	–
